Source: PubChem BioAssay (NCI)
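Test compounds were applied to cells in 96-well plates for 48 hours at 5 doses. TGI is the concentration that stops growth completely.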

Legend:
Assay in all cases: NCI-60 cell line screen, 48 h
[1] = tested on: CCRF-CEM leukemia
[2] = tested on: KM12 colon
[3] = tested on: OVCAR-8 ovarian
[4] = tested on: HOP-92 NSCLC
[5] = tested on: SNB-75 CNS
[6] = tested on: HT29 colon
[7] = tested on: MALME-3M melanoma
[8] = tested on: SNB-19 CNS
[9] = tested on: MDA-MB-435
[10] = tested on: HCC-2998 colon

Question: Which results are given for `CCCCCCCCCCCCCC1=C(O)C(=O)C(CC2=C(O)C(=O)C(CCCCCCCCCCCCC)=C(O)C2=O)=C(O)C1=O`?
Answer: TGI [1]: > 100 µM; TGI [2]: > 100 µM; TGI [3]: > 100 µM; TGI [4]: > 100 µM; TGI [5]: 83 µM; TGI [6]: > 100 µM; TGI [7]: > 100 µM; TGI [8]: 92.9 µM

Question: Which results are given for `CC(=O)O[C@H]1CC[C@H]2[C@@H]3CCC4=CC(=O)C=C[C@]4(O)[C@H]3CC[C@]12C`?
Answer: TGI [1]: 46.5 µM; TGI [2]: 52.8 µM; TGI [3]: > 86 µM; TGI [4]: 92.3 µM; TGI [5]: 61.3 µM; TGI [9]: 49.5 µM; TGI [8]: > 100 µM; TGI [10]: > 100 µM

Question: With `CC(C)(C)c1ccc2c(c1)C#Cc1cc(C(C)(C)C)ccc1OCCCO2` as the compound, how does the TGI [1] read?
Answer: Its TGI is > 100 µM.

Question: What about the TGI [2] of the same compound?
Answer: Its TGI is > 100 µM.

Question: And the TGI [3]?
Answer: Its TGI is > 100 µM.

Question: What about the TGI [9] of the same compound?
Answer: The TGI was > 100 µM.

Question: What about the TGI [6] of the same compound?
Answer: The TGI was > 100 µM.

Question: What about the TGI [7] of the same compound?
Answer: Its TGI is > 100 µM.

Question: What about the TGI [8] of the same compound?
Answer: Its TGI is > 100 µM.

Question: For `CC(=O)Nc1cccc(N2C(=O)/C(=C\c3cccc(Oc4ccccc4)c3)S(=O)(=O)C2c2ccccc2)c1` (centres undefined), which TGI [1] is on record?
Answer: The TGI was > 100 µM.

Question: What about the TGI [2] of the same compound?
Answer: The TGI was > 100 µM.

Question: And the TGI [3]?
Answer: Its TGI is > 100 µM.

Question: What about the TGI [4] of the same compound?
Answer: Its TGI is > 100 µM.

Question: What about the TGI [5] of the same compound?
Answer: Its TGI is > 100 µM.

Question: What about the TGI [9] of the same compound?
Answer: The TGI was > 100 µM.

Question: And the TGI [6]?
Answer: The TGI was > 100 µM.

Question: What about the TGI [7] of the same compound?
Answer: The TGI was > 100 µM.

Question: What about the TGI [8] of the same compound?
Answer: Its TGI is > 100 µM.

Question: What about the TGI [10] of the same compound?
Answer: The TGI was > 100 µM.

Question: What does the source list for `CCCCCCCCCCCCCCCCCCNc1ccn(C2OC(CO)C(OP(=O)(O)OCC(O)COP(=O)(O)OCC3OC(n4cc(F)c(NCCCCCCCCCCCCCCCCCC)nc4=O)CC3O)C2O)c(=O)n1` (centres undefined)?
Answer: TGI [2]: > 50 µM; TGI [3]: > 50 µM; TGI [4]: > 50 µM; TGI [5]: > 50 µM; TGI [9]: > 50 µM; TGI [6]: > 50 µM; TGI [7]: > 50 µM; TGI [8]: > 50 µM; TGI [10]: > 50 µM

Question: How did the TGI [1] turn out when `Nc1ccc(O)c2c1C(=O)c1c(N)ccc(O)c1C2=O` was run?
Answer: Its TGI is > 100 µM.

Question: What about the TGI [2] of the same compound?
Answer: The TGI was > 100 µM.

Question: And the TGI [3]?
Answer: The TGI was > 100 µM.

Question: And the TGI [4]?
Answer: The TGI was > 100 µM.

Question: And the TGI [5]?
Answer: Its TGI is > 100 µM.

Question: What about the TGI [7] of the same compound?
Answer: The TGI was > 100 µM.

Question: And the TGI [8]?
Answer: The TGI was > 100 µM.

Question: And the TGI [10]?
Answer: Its TGI is > 100 µM.

Question: How did the TGI [1] turn out when `CN(Cc1cn(O)c2nc(=N)nc(N)c-2n1)c1ccc(C(=O)NC23CC4CC(CC(C4)C2)C3)cc1` was run?
Answer: Its TGI is > 100 µM.

Question: And the TGI [2]?
Answer: Its TGI is > 100 µM.

Question: What about the TGI [3] of the same compound?
Answer: The TGI was > 100 µM.

Question: What about the TGI [5] of the same compound?
Answer: The TGI was 76.2 µM.

Question: And the TGI [9]?
Answer: The TGI was > 100 µM.

Question: What about the TGI [7] of the same compound?
Answer: The TGI was > 100 µM.

Question: What about the TGI [8] of the same compound?
Answer: The TGI was > 100 µM.

Question: Which TGI [2] does the source give for `CC(C)(C)OC(=O)N1C(OP(=O)(Oc2ccccc2)Oc2ccccc2)=CSc2ccccc21` here?
Answer: Its TGI is > 100 µM.

Question: What about the TGI [3] of the same compound?
Answer: The TGI was > 100 µM.

Question: What about the TGI [4] of the same compound?
Answer: Its TGI is 80.9 µM.

Question: And the TGI [5]?
Answer: The TGI was > 100 µM.

Question: What about the TGI [9] of the same compound?
Answer: Its TGI is > 100 µM.

Question: What about the TGI [6] of the same compound?
Answer: The TGI was > 100 µM.

Question: What about the TGI [7] of the same compound?
Answer: Its TGI is 88.1 µM.

Question: And the TGI [8]?
Answer: Its TGI is > 100 µM.

Question: And the TGI [10]?
Answer: The TGI was > 100 µM.

Question: Which results are given for `CCOC(=O)C1(C/C=C/CCl)CCCC1=O` (centres undefined)?
Answer: TGI [1]: > 100 µM; TGI [2]: 41.2 µM; TGI [3]: 38.2 µM; TGI [5]: 61.8 µM; TGI [9]: 44 µM; TGI [6]: 68.4 µM; TGI [7]: 45.4 µM; TGI [8]: 61.2 µM

Question: How did the TGI [1] turn out when `S=c1c2[nH]cnc2ncn1CCSC1=NC=NC2=NC=NC21` (centres undefined) was run?
Answer: The TGI was > 100 µM.

Question: What about the TGI [2] of the same compound?
Answer: Its TGI is > 100 µM.

Question: And the TGI [3]?
Answer: The TGI was > 100 µM.

Question: And the TGI [4]?
Answer: The TGI was > 100 µM.

Question: And the TGI [5]?
Answer: The TGI was > 100 µM.

Question: And the TGI [9]?
Answer: Its TGI is > 100 µM.

Question: And the TGI [6]?
Answer: The TGI was > 100 µM.

Question: What about the TGI [7] of the same compound?
Answer: Its TGI is > 100 µM.

Question: And the TGI [8]?
Answer: Its TGI is > 100 µM.

Question: And the TGI [10]?
Answer: Its TGI is > 100 µM.
